This assay concerns the target T1, PKA regulatory subunit R1Alpha (R1A) (Rattus norvegicus, UniProt P09456).
T1 construct: gene Prkar1a; endogenous detergent-insoluble R1A clusters in P30 rat CA1 brain sections
Description: saturation equilibrium binding in fixed brain sections, confocal fluorescence microscopy.

In general, Kd refers to the free concentration of one partner at which half of the binding sites on the other are occupied at equilibrium, for simple one-to-one binding. Low readings indicate a tighter complex, high ones a looser complex.

T1 sequence (P09456 2-381): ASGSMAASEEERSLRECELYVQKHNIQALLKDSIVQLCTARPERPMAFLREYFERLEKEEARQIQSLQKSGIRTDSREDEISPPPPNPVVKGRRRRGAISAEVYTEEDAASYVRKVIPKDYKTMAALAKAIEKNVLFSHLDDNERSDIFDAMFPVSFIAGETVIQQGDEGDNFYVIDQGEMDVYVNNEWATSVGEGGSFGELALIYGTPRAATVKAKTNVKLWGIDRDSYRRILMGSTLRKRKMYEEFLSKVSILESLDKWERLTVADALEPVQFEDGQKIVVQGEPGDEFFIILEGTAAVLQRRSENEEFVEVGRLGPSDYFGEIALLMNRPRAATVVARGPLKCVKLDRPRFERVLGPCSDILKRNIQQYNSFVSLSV

The compound `Nc1ncnc2c1nc(SCC(=O)Nc1ccc3c(c1)C(=O)OC31c3ccc(O)cc3Oc3cc(O)ccc31)n2[C@@H]1O[C@@H]2COP(=O)(O)O[C@H]2[C@H]1O` [SAF-cAMP, 8-(5-thioacetamidofluorescein)-adenosine 3′,5′-cyclic monophosphate] gave a Kd of 0.0235 µM. This counts as double-digit nanomolar.

The record behind these values is article PMC10570460 (Frontiers in Cell and Developmental Biology, 2023).
